Experimental data published in patent US9108930B2, “N1- and N2-carbamoyl-1,2,3-triazole serine hydrolase inhibitors and methods” (The Scripps Research Institute, priority 2011, dated 2015).

Experiments:
peritoneal macrophages = assay: Metabolomics of thioglycolate-elicited peritoneal macrophages from treated mice; assay type: in vivo, mouse; conditions: 5 mg/kg, 4 hours, i.p.
Experimental: Mice were treated with KT109, KT172 or KT195 (5 mg/kg, 4 hours, i.p.) to evaluate whether blockade of DAGLB in peritoneal macrophages would result in metabolic effects similar to those observed in Neuro2A cells. Thioglycolate-elicited peritoneal macrophages were harvested, and the cells were subjected to metabolomics studies. […] All the metabolic effects observed in pharmacological studies were recapitulated using Daglb^−/− mice, providing genetic evidence that the changes were indeed DAGLB-mediated.
Metabolites were quantified by either selected reaction monitoring (SRM) of each metabolite using an Agilent G6410B Triple-Quad instrument or untargeted metabolomic analysis (substrate assays) using an Agilent 1100 series LC-MSD SL instrument. […] For analysis of diacylglycerols (DAGs) a Luna C5 column (50 mm×4.60 mm with 5 μm diameter particles) from Phenomenex was used. Mobile phase A was made of 95:5 v/v H2O:MeOH, and mobile phase B was composed of 60:35:5 v/v/v i-PrOH:MeOH:H2O. Ammonium hydroxide (0.1%) and formic acid (0.1%) was included to assist in ion formation in negative and positive ionization modes, respectively. For analysis of DAGs, 5 mM ammonium formate was also used in addition to 0.1% formic acid to assist in positive ionization and NH4+ adduct formation. For metabolite measurements, cells were resuspended in 1 mL of a 1% NaCl solution and added to 3 mL of a 2:1 v/v CHCl3:MeOH doped with 1 nmol of the following internal standards: d5-2-arachidonoylglycerol (2-AG), d8-arachidonic acid (AA), and d8-1-stearoyl-2-arachidonoylglycerol (SAG). The mixture was vortexed and then centrifuged (1,400×g, 3 min). The organic layer was removed, CHCl3 was added until the final volume was again 4 ml, and the extraction was repeated. The combined organic extracts were dried under a stream of N2 and resolubilized in 2:1 v/v CHCl3:MeOH (120 μl). 30 μL of resolubilized lipids were injected for positive mode (MAGs and DAGs) and negative mode (free fatty acids and eicosanoids) measurements.
The following parameters (MS) were used to measure the indicated metabolites by SRM (precursor ion, product ion, collision energy in V, polarity): C20:4 MAG or 2-AG (379, 287, 8, positive), d5-2-AG (384, 287, 5, positive), C18:0/C20:4 DAG or SAG (662, 341, 15, positive), d8-SAG (671, 671, 0, positive), C18:1/C20:4 DAG (660, 341, 15, positive), C16:0/C20:4 DAG (634, 341, 15, positive), C14:0/C20:4 DAG (606, 341, 15, positive), arachidonic acid or AA (303, 303, 0, negative), d8-AA (311, 267, 5, negative), PGE2 (351, 271, 10, negative), and PGD2 (351, 271, 10, negative). MS analysis was performed with an electrospray ionization source with the following parameters: drying gas temperature=350° C., drying gas flow rate=11 L/min, and the nebulizer pressure=35 psi. Prostaglandin SRM parameters were based on previously reported methods and transitions. Metabolites targeted by SRM were quantified by measuring the area under the peak in comparison with the internal standards. For metabolites where isotopic internal standards were not used, external standard curves with the internal standard versus metabolite standard were generated. In DAGL substrate assays, formation of the hydrolysis product, 2-AG was followed by measuring the area under the peak for 2-AG in comparison to the 1-monopentadecanoin standard ion.

DAGLB = target: T1, DAGLB (Mus musculus, UniProt Q91WC9); assay: In situ inhibition in Neuro2A cells, competitive ABPP with HT-01; assay type: cell-based; set-up: from tissue; host or cells: thioglycolate-elicited peritoneal macrophages of treated mice; conditions: 4 hours
T1 sequence (Q91WC9 1-669): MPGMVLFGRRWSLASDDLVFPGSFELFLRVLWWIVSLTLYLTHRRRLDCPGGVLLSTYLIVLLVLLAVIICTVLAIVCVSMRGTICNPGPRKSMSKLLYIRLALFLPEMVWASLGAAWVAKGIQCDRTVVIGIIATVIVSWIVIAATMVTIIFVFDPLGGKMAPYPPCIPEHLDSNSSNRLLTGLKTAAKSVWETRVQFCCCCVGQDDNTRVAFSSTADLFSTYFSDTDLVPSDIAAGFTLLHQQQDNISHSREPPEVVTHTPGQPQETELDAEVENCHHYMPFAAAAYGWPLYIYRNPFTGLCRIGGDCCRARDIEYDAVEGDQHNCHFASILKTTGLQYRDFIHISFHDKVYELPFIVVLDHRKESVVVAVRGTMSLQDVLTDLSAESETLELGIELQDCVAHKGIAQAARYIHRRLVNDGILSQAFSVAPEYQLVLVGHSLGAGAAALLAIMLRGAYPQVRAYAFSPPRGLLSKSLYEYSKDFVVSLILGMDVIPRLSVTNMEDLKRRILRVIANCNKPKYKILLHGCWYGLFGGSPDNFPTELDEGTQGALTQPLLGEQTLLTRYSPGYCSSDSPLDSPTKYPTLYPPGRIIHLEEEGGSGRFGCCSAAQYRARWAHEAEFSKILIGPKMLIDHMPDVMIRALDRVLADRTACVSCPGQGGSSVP
Experimental: For gel-based competitive ABPP studies, proteomes from cells treated in situ with inhibitor for 4 h at 37° C. at the indicated concentrations (n=3) were labeled with HT-01 (1 μM) for 30 min at 37° C. After quenching, SDS-PAGE, and in-gel visualization, the percentage of enzyme activity remaining was determined by measuring the integrated optical intensity of the bands using IMAGER® software. For LC-MS substrate assays, the percentage of enzyme activity remaining was determined by comparing the specific activity (amount of 2-AG formed per min per mg of proteome) of inhibitor with DMSO-treated samples. The IC50 values were determined from a dose-response curve generated using GraphPad PRISM® software.

ABHD6 = target: T2, ABHD6 (Mus musculus, UniProt Q8R2Y0); assay: ABPP-SILAC in Neuro2A cells; conditions: about 4 hours; 25 nM
T2 sequence (Q8R2Y0 1-336): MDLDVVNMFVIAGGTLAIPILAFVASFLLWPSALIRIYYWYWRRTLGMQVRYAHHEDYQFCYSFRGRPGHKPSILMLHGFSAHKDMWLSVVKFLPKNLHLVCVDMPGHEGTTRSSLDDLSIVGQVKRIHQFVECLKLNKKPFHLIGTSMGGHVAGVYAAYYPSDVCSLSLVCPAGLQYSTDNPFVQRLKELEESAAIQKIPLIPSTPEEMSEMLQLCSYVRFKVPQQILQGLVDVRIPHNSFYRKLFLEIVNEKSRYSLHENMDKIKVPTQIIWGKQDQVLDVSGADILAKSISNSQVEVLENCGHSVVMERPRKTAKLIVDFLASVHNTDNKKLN

Row | Structure (SMILES) | change in 2-AG (peritoneal macrophages) | change in SAG (peritoneal macrophages) | change in cellular AA, PGE2 and PGD2 (peritoneal macrophages) | IC50 (DAGLB) [nM] | ABHD6 activity blocked (ABHD6) [%] | activity against DAGLB in Neuro2A cells (DAGLB)
1 | O=C(N1CCCCC1Cc1ccccc1)n1cc(-c2ccc(-c3ccccc3)cc2)nn1 (centres unmarked) [KT109] | Dramatic decreases in 2-AG | significant increases in SAG | significant decreases in cellular AA levels and a corresponding reduction in PGE2 and PGD2 | 14 |  | 
2 | COc1ccc(-c2ccc(-c3cn(C(=O)N4CCCCC4c4ccccc4)nn3)cc2)cc1 (centres unmarked) [KT195] | no observable changes |  | None of these effects were observed |  | > 90 | negligible activity against DAGLB
